# Measured values published in PubChem BioAssay (NCI).
#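 Cells were grown in 96-well plates and exposed to each compound for 48 hours at five concentrations; endpoints were interpolated linearly between bracketing concentrations, or set to the highest concentration if not reached. Here, GI50 denotes the concentration required for 50% inhibition of growth. TGI marks complete inhibition of growth.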
# Key:
# Assay in all cases: inhibition of tumour cell growth, NCI panel, 48 h
# [1] = system: UACC-257 melanoma
# [2] = system: TK-10 renal
# [3] = system: NCI-H522 lung
# [4] = system: UO-31 renal
# [5] = system: SK-MEL-28 melanoma
# [6] = system: M14 melanoma
# [7] = system: SF-268 CNS
# [8] = system: A549 NSCLC
# [9] = system: HCT-116 colon
# [10] = system: K-562 leukemia
SMILES,GI50 [1],TGI [1],GI50 [2],TGI [2],GI50 [3],TGI [3],GI50 [4],TGI [4],GI50 [5],TGI [5],GI50 [6],TGI [6],GI50 [7],TGI [7],GI50 [8],TGI [8],GI50 [9],TGI [9],GI50 [10],TGI [10]
CN(C)c1ccc(/C=N/NC(=O)CSc2nc3sc4c(c3c(=O)n2-c2ccccc2)CCCCC4)cc1,> 100 µM,> 100 µM,4.16 µM,> 100 µM,3.89 µM,> 100 µM,> 100 µM,> 100 µM,4.42 µM,> 100 µM,8.26 µM,> 100 µM,11.5 µM,> 100 µM,4.25 µM,> 100 µM,3.96 µM,> 100 µM,–,–
C[C@]12CC/C(=N\O)C[C@@H]1CC[C@@H]1[C@@H]2CC[C@]2(C)/C(=N/O)CC[C@@H]12,37.6 µM,> 100 µM,32.1 µM,> 100 µM,21 µM,58.3 µM,31.5 µM,78.4 µM,> 100 µM,> 100 µM,23.7 µM,55.2 µM,–,–,52.7 µM,> 100 µM,23.3 µM,58.5 µM,40.9 µM,> 100 µM
Cc1ccc2oc(=O)cc(CC(=O)O)c2c1,–,–,–,> 100 µM,–,> 100 µM,–,–,–,> 100 µM,–,> 100 µM,–,> 100 µM,–,> 100 µM,–,> 100 µM,–,> 100 µM
C/C(=N\NC(=O)C[n+]1ccccc1)c1sc(-c2nc(C)c(/C(C)=N/NC(=O)C[n+]3ccccc3)s2)nc1C,–,> 100 µM,–,> 100 µM,–,–,–,> 100 µM,–,> 100 µM,–,> 100 µM,–,> 100 µM,–,> 100 µM,–,> 100 µM,–,> 100 µM
O=C1C2c3[nH]c4ccccc4c3C3CCC(c4ccccc4)CC3C2C(=O)N1c1ccccc1 (stereo not drawn),–,–,–,> 100 µM,–,–,–,> 100 µM,–,> 100 µM,–,> 100 µM,–,> 100 µM,–,> 100 µM,–,–,–,> 100 µM
N#Cc1c(N)n(C2OC(CO)C(O)C2O)c2ncnc(N)c12 (stereo not drawn),–,0.574 µM,–,–,–,–,–,–,–,0.432 µM,–,0.265 µM,–,1.81 µM,–,–,–,> 7.59 µM,–,> 20.2 µM
S=P(C1CCCCC1)(C1CCCCC1)C(c1cccnc1)N1CCCC1 (stereo not drawn),–,> 100 µM,–,34.3 µM,–,41.2 µM,–,–,–,> 100 µM,–,34.6 µM,–,38.4 µM,–,35.4 µM,–,34.2 µM,–,39.2 µM
CN(Cc1ccccc1)c1ncnc2ccc(Br)cc12,–,–,5.68 µM,19.8 µM,23.1 µM,> 100 µM,13.3 µM,49.5 µM,15.6 µM,36.1 µM,12.9 µM,25.7 µM,10.2 µM,27.5 µM,17.5 µM,45.8 µM,11.1 µM,23.5 µM,4.4 µM,18.6 µM
CO[C@H](C(=O)O[C@H]1C(=O)N2CCC3CCC1C32C)c1ccccc1 (stereo partly drawn),–,> 100 µM,–,–,–,> 100 µM,–,> 100 µM,–,> 100 µM,–,> 100 µM,–,> 100 µM,–,> 100 µM,–,> 100 µM,–,> 100 µM
Clc1cc(Cl)cc(C2SCc3nc4ccccc4n32)c1 (stereo not drawn),–,32.4 µM,–,70.2 µM,–,39.3 µM,–,43.5 µM,–,36.1 µM,–,–,–,59.3 µM,–,76.1 µM,–,–,–,25.2 µM
[O-]c1ccccc1[C-]=Nc1ccccc1O.[O-]c1ccccc1[C-]=Nc1ccccc1O.[O]=[U]=[O],3.9 µM,26.3 µM,28.9 µM,55.5 µM,4.01 µM,51.8 µM,–,–,14 µM,35.9 µM,10.2 µM,41.7 µM,11.3 µM,58.1 µM,16.2 µM,43.9 µM,–,–,2.79 µM,> 100 µM
CN1C(=O)C(C)(C)NS1(=O)=O,–,> 100 µM,–,> 100 µM,–,–,–,> 100 µM,–,> 100 µM,–,> 100 µM,–,> 100 µM,–,> 100 µM,–,> 100 µM,–,> 100 µM
Cc1cc(N(CCC#N)CCC#N)ccc1/C=C(\NC(=O)/C=C/c1ccccc1)NC(=O)Nc1ccccc1C,–,> 100 µM,–,–,–,–,–,> 100 µM,–,> 100 µM,–,> 100 µM,–,> 100 µM,–,> 100 µM,–,> 100 µM,–,> 100 µM
Cc1ccc(C(=O)Nc2ccc(CN3CCN(C)CC3)c(C(F)(F)F)c2)cc1C#Cc1cnc(N)c2ccc(C#N)cc12,0.332 µM,> 35 µM,0.625 µM,5.75 µM,0.605 µM,> 25.2 µM,0.0224 µM,2.26 µM,0.108 µM,3.47 µM,0.0234 µM,2.34 µM,0.206 µM,17.2 µM,0.917 µM,12.8 µM,0.167 µM,7.3 µM,–,–
CN(C)C(=O)C(NCCO)c1ccccc1 (stereo not drawn),–,> 100 µM,–,> 100 µM,–,> 100 µM,–,> 100 µM,–,> 100 µM,–,> 100 µM,–,> 100 µM,–,> 100 µM,–,> 100 µM,–,–
Cc1cc(C)nc(NS(=O)(=O)c2ccc(Nc3nc4nc(NCc5ccccc5)nc(-c5ccc(O)cc5)c4c(=O)[nH]3)cc2)n1,–,–,28 µM,> 100 µM,2.61 µM,22.8 µM,6.39 µM,> 100 µM,13.4 µM,> 100 µM,37.5 µM,> 100 µM,18 µM,> 100 µM,18.9 µM,> 100 µM,23.6 µM,> 100 µM,4.84 µM,> 100 µM
CCCCCCCC(=O)SCC/C=C/[C@@H]1CC(=O)NCc2cccc(n2)C2=N[C@@](C)(CS2)C(=O)N[C@@H](C(C)C)C(=O)O1,–,–,0.0262 µM,0.361 µM,0.0192 µM,0.845 µM,0.0647 µM,1.03 µM,0.0312 µM,3.01 µM,0.0348 µM,> 33.3 µM,0.0986 µM,> 28 µM,0.0362 µM,> 33.3 µM,0.0148 µM,0.219 µM,0.0829 µM,> 33.3 µM
Clc1cc2nc[nH]c2cc1Cl,–,–,–,> 100 µM,–,–,–,> 100 µM,–,> 100 µM,–,> 100 µM,–,> 100 µM,–,> 100 µM,–,–,–,> 100 µM
